Measured values taken from US20240342161A1, “BISBENZYLISOQUINOLINES AS CONDITIONING AGENTS FOR IMMUNE THERAPY” (priority 2023, published 2024).
Values joined by “and” are separate entries in the source; they are usually repeats but may differ in a detail not shown here. Identical values can stand only once.

Key:
hERG = hERG (Homo sapiens, UniProt Q12809); assay: hERG inhibition, IonWorks HT electrophysiology in CHO cells stably transfected with hERG
CAMKII gamma = target: T1, CAMKII gamma (Homo sapiens, UniProt Q13555); assay: CAMKII gamma kinase activity (ADP Glo); type: biochemical; conditions: for units: duplicate reactions
T1 construct: purchased Promega V3531
Protocol: An enzymatic study was conducted to evaluate the inhibition of CAMKII gamma by ES-3000 (Tetrandrine). CAMKII gamma kinase activity was measured using […] purchased from Promega following the Promega protocol. CAMKII enzyme system purchased from Promega (V3531). ADP Glo was used for detection. Assay optimized for linearity of protein and time. Conditions for inhibitor screening 25 ng CAMKII, 20 min. incubations, inhibitor or DMSO (5%) at RT in 20 uL total volume. Inhibitor, ATP (10 or 50 μM), substrates and buffer added to tubes and reactions started with enzyme. […] Reactions terminated at 20 min. by adding ADP Glo reaction following manufactures instructions. All reactions were done in duplicate. Calculations of percent (%) inhibition determined by dividing the mean activity at each condition by the mean of the DMSO control times 100.

[1] = system: CML colonies, secondary clonal growth; assay: Replating assay (secondary clonal growth of CML colonies); type: cell-based, human; conditions: colonies from original cultures with ES-3000 @ 10 μM; 24 wells
P-glycoprotein (P-gp) = P-glycoprotein (P-gp) (Homo sapiens, UniProt P08183); conditions: cited from earlier work
bcr-abl = assay: qPCR assay for bcr-abl in plucked CML colonies; type: cell-based, human; conditions: Secondary colonies, 10 μM, number of colonies; listed as Tetrandrine
Protocol: To determine whether a colony was normal (bcr-abl negative and abl positive) or diseased (bcr-abl and abl positive), a TaqMan®-based qPCR test was used. In order to score the colonies positive or negative, the following scoring strategy was performed. All colonies were assayed in duplicate for each target. If a singleton reaction yielded a Ct then the reaction scored a 1. If no Ct was recorded, a score of 0 was given. From here, we used a logic test to score the colonies into four different categories: bcr-abl and abl, abl only, bcr-abl only or both negative. In order to be placed in a category, a colony must score a 1 in both reactions. However, if a colony only scored a 1 for one out of the two reactions, this colony was removed from the analysis. […] Alternatively, if a colony scored a 1 in only both of the bcr-abl reactions or a 1 in only both the abl reactions, the colony was placed in the bcr-abl only or abl only category, respectively. If the colony scored a 0 for both targets (bcr-abl and abl) then the colony was placed in the both negative category.
In total 48 primary colonies and 31 secondary replated colonies were assessed for bcr-abl and abl using qPCR. […] Thirteen secondary colonies treated with Tetrandrine at 10 μM were assessed.

β-catenin = β-catenin protein level in K562 cell extracts by western blot; type: cell-based, human
Protocol: The second portion was to quantitate the levels of β-catenin protein by western blot. TET's ability in an in vitro assay to reduce β-catenin expression was tested in human erythroleukemic (K562) cells. Testing was conducted by Alamo Laboratories, San Antonia, TX.
Briefly, the method to quantitate β-catenin protein by western blot was as follows: Extracts of K562 cells (untreated and treated with various concentrations of tetrandrine) were concentrated to 0.4 ml using Centricon-3 column to yield a protein concentration of approximately 2 mg/ml. Samples were mixed with 5× Laemmli buffer and loaded on 8-16% Tris-Glycine gradient gel, then polyacrylamide gel electrophoresis (PAGE) was run at 85 volts for 100 minutes at 6° C. and proteins were transferred on PVDF membrane at 70 Volts for 85 minutes at 8° C. Membrane was blocked with 5% milk in Tris-buffered Saline containing 0.1% TW-20 (TBST). Membrane was incubated with primary antibody for 18 hours at 4° C. followed by 3 washes, 5 minutes each, with TBST and incubated with secondary antibody in TBST for 2 hours at 25° C. The membrane was washed again with TBST as described above and incubated with ECL-2 substrate for 5 minutes and scanned on Kodak Image Station. After scan, blot was stripped of primary and secondary antibodies and re-probed with anti-beta Actin antibody as described above. Protein bands in WB images were quantitated using Molecular Imaging software pack MIS-4.0 software and tabulated in Excel spreadsheet.

T1 sequence (Q13555 whole entry): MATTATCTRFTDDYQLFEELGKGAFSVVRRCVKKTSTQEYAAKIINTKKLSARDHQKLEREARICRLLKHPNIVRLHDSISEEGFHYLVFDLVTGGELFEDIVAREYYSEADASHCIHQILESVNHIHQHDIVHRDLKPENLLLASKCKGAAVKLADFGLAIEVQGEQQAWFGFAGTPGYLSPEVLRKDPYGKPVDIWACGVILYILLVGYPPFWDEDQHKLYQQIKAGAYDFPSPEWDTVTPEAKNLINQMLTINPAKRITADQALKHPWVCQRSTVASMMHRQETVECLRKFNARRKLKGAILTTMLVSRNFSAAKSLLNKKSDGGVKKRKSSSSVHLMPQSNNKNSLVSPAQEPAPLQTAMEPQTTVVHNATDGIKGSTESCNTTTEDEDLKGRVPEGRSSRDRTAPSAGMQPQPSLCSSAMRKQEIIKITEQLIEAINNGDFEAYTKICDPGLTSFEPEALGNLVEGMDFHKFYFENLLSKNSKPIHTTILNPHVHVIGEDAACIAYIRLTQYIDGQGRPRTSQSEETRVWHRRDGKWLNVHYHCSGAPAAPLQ
Sequence of P-glycoprotein (P-gp) (P08183 whole entry): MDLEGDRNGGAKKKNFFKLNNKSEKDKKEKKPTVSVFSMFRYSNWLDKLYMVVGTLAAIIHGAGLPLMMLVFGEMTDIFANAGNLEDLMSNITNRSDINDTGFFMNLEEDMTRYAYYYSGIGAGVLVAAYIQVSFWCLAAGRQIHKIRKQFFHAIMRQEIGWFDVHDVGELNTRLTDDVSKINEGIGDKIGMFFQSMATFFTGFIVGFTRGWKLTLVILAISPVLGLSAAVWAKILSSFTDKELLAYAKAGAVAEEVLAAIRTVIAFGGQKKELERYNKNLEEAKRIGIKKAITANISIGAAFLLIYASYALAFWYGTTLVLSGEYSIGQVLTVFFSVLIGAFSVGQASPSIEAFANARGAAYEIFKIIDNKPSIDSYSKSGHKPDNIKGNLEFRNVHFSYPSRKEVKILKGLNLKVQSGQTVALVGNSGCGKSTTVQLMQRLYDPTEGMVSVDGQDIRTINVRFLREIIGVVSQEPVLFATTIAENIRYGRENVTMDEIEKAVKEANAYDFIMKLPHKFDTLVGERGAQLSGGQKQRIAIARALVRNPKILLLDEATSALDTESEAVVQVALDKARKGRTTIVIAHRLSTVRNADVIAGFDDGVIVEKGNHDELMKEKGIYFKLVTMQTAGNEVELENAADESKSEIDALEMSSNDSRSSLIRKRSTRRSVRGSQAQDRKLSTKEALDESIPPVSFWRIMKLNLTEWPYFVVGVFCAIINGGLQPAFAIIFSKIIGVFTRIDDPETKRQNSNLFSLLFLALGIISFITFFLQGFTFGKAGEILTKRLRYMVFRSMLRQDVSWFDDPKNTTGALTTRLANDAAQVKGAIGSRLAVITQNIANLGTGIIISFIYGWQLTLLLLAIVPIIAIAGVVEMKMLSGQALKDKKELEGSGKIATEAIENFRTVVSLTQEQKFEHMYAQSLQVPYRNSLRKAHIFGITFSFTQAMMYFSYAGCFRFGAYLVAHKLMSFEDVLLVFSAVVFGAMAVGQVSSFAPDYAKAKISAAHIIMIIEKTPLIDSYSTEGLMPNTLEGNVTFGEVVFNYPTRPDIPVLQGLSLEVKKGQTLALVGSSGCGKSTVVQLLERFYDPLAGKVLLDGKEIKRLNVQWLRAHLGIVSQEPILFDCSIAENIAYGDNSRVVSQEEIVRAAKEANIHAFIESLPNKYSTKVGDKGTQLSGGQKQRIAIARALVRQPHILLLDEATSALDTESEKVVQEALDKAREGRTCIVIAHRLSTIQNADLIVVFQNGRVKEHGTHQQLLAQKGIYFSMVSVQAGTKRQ
Sequence of hERG (Q12809 whole entry): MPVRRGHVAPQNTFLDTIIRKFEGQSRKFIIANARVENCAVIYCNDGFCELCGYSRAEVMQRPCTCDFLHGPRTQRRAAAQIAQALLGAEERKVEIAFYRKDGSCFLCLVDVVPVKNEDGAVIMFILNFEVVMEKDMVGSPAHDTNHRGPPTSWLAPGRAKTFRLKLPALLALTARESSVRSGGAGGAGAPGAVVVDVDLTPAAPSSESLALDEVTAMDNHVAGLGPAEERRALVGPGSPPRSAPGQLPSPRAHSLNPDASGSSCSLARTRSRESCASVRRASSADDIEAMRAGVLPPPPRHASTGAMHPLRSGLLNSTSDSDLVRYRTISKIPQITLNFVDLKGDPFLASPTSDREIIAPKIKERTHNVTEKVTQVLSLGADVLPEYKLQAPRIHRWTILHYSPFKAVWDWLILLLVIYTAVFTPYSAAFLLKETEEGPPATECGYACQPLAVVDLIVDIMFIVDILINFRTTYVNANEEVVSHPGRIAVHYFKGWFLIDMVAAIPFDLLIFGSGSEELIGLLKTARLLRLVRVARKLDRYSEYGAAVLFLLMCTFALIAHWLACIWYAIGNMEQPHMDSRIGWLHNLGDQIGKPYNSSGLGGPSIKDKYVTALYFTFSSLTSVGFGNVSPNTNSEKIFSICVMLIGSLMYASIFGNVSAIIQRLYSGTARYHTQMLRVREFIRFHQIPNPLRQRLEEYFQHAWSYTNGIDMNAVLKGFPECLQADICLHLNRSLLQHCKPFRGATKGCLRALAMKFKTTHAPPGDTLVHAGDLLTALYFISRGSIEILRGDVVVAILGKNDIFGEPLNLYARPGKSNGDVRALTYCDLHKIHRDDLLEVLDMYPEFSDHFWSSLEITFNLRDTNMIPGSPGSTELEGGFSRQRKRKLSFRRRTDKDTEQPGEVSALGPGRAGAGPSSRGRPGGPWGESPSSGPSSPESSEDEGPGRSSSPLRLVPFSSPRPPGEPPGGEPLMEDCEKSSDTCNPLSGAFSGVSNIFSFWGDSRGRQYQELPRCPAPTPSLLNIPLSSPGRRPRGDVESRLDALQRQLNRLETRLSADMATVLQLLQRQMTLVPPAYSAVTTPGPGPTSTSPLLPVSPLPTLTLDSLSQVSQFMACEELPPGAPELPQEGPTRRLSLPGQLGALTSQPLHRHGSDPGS

Substance: 6,6′,7,12-tetramethoxy-2,2′-dimethyl-berbaman [ES-3000]
- plasma levels above which QT prolongation might be expected in subjects (hERG; interpretation from hERG IC50 and protein binding): above 249 ng/mL
- safety for cardiac conduction-related toxicity (hERG IC50 versus human Cmax) (hERG; utilizing Cmax from previous human clinical experience): 13 fold
- mean (CAMKII gamma; 10 uM ATP, inhibitor 30 uM): 3.09
- units (CAMKII gamma; 10 uM ATP, inhibitor 30 uM): 2.75 units and 3.43 units
- mean (CAMKII gamma; 10 uM ATP, inhibitor 100 uM): 2.87
- units (CAMKII gamma; 10 uM ATP, inhibitor 100 uM): 2.5 units and 3.24 units
- mean (CAMKII gamma; 10 uM ATP, inhibitor 250 uM): 0.41
- units (CAMKII gamma; 10 uM ATP, inhibitor 250 uM): 0.34 units and 0.48 units
- mean (CAMKII gamma; 50 uM ATP, inhibitor 30 uM): 10.55
- units (CAMKII gamma; 50 uM ATP, inhibitor 30 uM): 10.4 units and 10.7 units
- mean (CAMKII gamma; 50 uM ATP, inhibitor 100 uM): 7.955
- units (CAMKII gamma; 50 uM ATP, inhibitor 100 uM): 8.81 units and 7.1 units
- CAMKII gamma kinase activity inhibition, result in words (CAMKII gamma; 30-250 uM, 10 or 50 μM ATP): inhibited CAMKII gamma kinase activity in a dose dependent manner
- Replating colony count per well [1]: 1
- substrate of P-gp (P-glycoprotein (P-gp)): not a substrate of P-gp
- function of P-gp (P-glycoprotein (P-gp); without altering the protein expression level of Pgp): directly inhibits the function of P-gp in a dose-dependent manner
- bcr-abl and abl colonies (bcr-abl): No colonies scored positive for bcr-abl and abl
- β-catenin band (β-catenin; K562 cells treated with 0 to 10 uM): evident
- convincing β-catenin band (β-catenin; K562 cells treated with 20 and 40 uM): absent
- β-catenin level, result in words (β-catenin; K562 cells, 0 to 40 uM, 24 hours): lowers the β-catenin level in K562 cells in a dose dependent manner
